Melting point data for 87 compounds are collected here from a melting point compilation (Tetko et al.; mined from patent text by program, amines drawn as free bases though some values may be those of a salt).

Each structure is given as a SMILES string.

As a reminder, the melting point is the temperature of the solid-liquid transition. `O=C1Nc2ccc(F)cc2OC1CCO` (configuration not stated) came in with a melting point of 136 to 138 °C.
The same measure for `O=C(NC(CS)Cc1ccccc1)N1CCSCC1` (single isomer, unassigned; (+)): 98 to 100 °C; for `O=C(O)C1CCCc2c1ccc1c2OCO1` (configuration not stated): 225 to 257 °C; for `CC(=NO)c1ccc(Nc2c3ccccc3nc3occc23)cc1`: 264 to 265 °C.
Turning to `COc1ccc(-c2c(C#N)nn(-c3c(Cl)cc(C(F)(F)F)cc3Cl)c2N)cc1`, the melting point is 222 °C.
The same measure for `COC(=O)c1ccccc1S(=O)(=O)NC(=O)Nc1nnc(SC)n(C)c1=O`: 186 to 187 °C.
The same measure for `Cc1nc[nH]c1CSCCNC(=C[N+](=O)[O-])NN`: 142 °C; for `COc1cc(C(C)C)c2c(c1)S(=O)(=O)N(COc1cc(=O)n3c(n1)CCCC3)C2=O`: 184 to 186 °C.
The same measure for `CCCc1cn(C(CC)C(=O)N(C)C)nc1-c1ccccc1` (configuration not stated): 63 to 65.5 °C; for `Cc1cc(-c2cc(C(F)F)n3ncc(C(=O)Nc4nc(C)c(S(=O)(=O)NC(C)(C)CO)s4)c3n2)ccc1C(F)(F)F`: 271 °C.
In turn, `CCOC(=O)c1cnn(C)c1C(=O)Nc1ccc2nc(-c3ccccc3)nn2c1` returned a melting point of 251 to 254 °C.
`CNc1cc(F)c(C#N)cc1F` registered a melting point of 160 to 163 °C.
The same measure for `O=C(CCl)c1ccc2c(c1)CN(C(=O)C(F)(F)F)CC2`: 120 to 122 °C; for `CN1C(=O)C(C)(C)N=C(c2ccccc2F)c2c1cc(Br)c(N)c2Br`: 202 °C.
Compound `Cc1ccc(S(=O)(=O)N2CCCC(CS(=O)(=O)c3ccccc3)C2)cc1` (configuration not stated) showed a melting point of 135 to 136 °C.
Compound `C[C@H](O)[C@H](Cc1ccccc1)C(=O)NN` showed a melting point of 167 °C.
The same measure for `COc1cc2c(cc1C(F)(F)F)N(C(=O)Nc1cc(F)cc(I)c1)CC2`: 221 to 224 °C; for `Cc1cc(=O)n(-c2ccc(Cl)cc2)cn1`: 177 to 179 °C; for `CCOP(=O)(CNc1ccc(Cl)cc1[N+](=O)[O-])OCC`: 94 to 95 °C.
The same measure for `CCc1nn(CC(=N)NO)c(CC)c1Oc1cc(Cl)cc(Cl)c1`: 128 to 130 °C; for `COc1ccc(N2CCOCC2)c2sc(C(N)=S)nc12`: 238 °C.
The same measure for `O=C1Cc2ccccc2N1NCCCc1ccncc1F`: 114 to 116 °C; for `CCc1coc2c(Cc3ccc(C(C)C)cc3)c(C)cc(C)c12`: 62 to 64 °C.
With `CCOc1ccc(C(=O)c2ccccc2F)c(Cl)c1Cl`, the melting point was in the range of 94 to 95 °C.
The same measure for `CCCN(Cc1ccc(-c2ccccc2C2=NC(C)(C)CO2)cc1)C(c1ccccc1)(c1ccccc1)c1ccccc1`: 151 to 153 °C.
As for `COc1ccc(N2CCN(c3ncc(-n4cn[nH]c4=O)cn3)CC2)cc1`, the melting point was found to be 272 °C.
The same measure for `CCN(C(=O)n1nnc2cc(C)cc(C)c21)c1ccccc1`: 90 °C; for `On1c(-c2ccccc2)c[nH]c1=S`: 191 °C.
The same measure for `O=C(Nc1ccccc1)c1nn(-c2cccc(C(F)(F)F)c2)ccc1=O`: 181 to 182 °C.
Turning to `CCOC(=O)C(=O)CC(=O)c1cn(Cc2ccc(OC)cc2)c2ccccc2c1=O`, the melting point is 154 to 156 °C.
The same measure for `CCOC(=O)c1cccc2c1N=C(c1ccccc1Cl)CC2=O`: 152 to 153 °C; for `CCCc1c(O)ccc(C(=O)c2ccccc2O)c1O`: 110 to 113 °C; for `COC(=O)c1cccc2c1-c1ccc3c(c1C(c1ccccc1)O2)C(C)=CC(C)(C)N3` (configuration not stated): 150 to 152 °C.
For `O=C1OC(=O)c2c1ccc1sc3ccccc3c21`, the melting point lay in the range of 248 to 250 °C.
The same measure for `COc1cc(C2CCN(C)CC2)ccc1-c1nc2c(N[C@H]3[C@@H](C(N)=O)[C@@H]4C=C[C@H]3C4)c(Cl)cnc2[nH]1`: 232 to 235 °C; for `CCCCCCCCCCCC(=O)C(C)(C)C(=O)Nc1c(OC)cc(OC)cc1OC`: 92 to 94 °C; for `COC=C(C(=O)OC)N(C)c1nc(-c2ccc(Cl)cc2)cs1`: 104 to 105 °C.
The same measure for `CCN(CC)C(=O)n1cc(F)c(S(=O)(=O)c2c(Cl)cc(Cl)cc2Cl)n1`: 89 to 90 °C; for `Cc1cc(C(O)c2ccccc2)sc1C` (configuration not stated): 79 to 80 °C; for `COc1cc2c(cc1-n1cccc1)C(Nc1ccc(F)c(Cl)c1)=C(C#N)CN2`: 192 to 194 °C.
For `CCCc1c(OCCOc2ccc([N+](=O)[O-])cc2)ccc(C(C)=O)c1O`, the melting point lay in the range of 124 to 125 °C.
In turn, `Nc1ccc(Oc2ccc3ccc(Oc4ccc(N)c(O)c4)cc3c2)cc1O` displayed a melting point of 201 to 210 °C.
Turning to `CSc1ccc(-n2c(-c3ccccc3)nc(SC)c(C#N)c2=O)cc1`, the melting point was in the range of 204 to 205 °C.
The same measure for `CCC(CC)C(=O)O[C@H]1C[C@H](O)C=C2C=C[C@H](C)[C@H](CC[C@@H]3C[C@@H](O)CC(=O)O3)[C@H]21`: 158 °C.
`COC(=O)C(C)OC(=O)c1cc(-n2c(=O)cc(C(F)(F)F)n(C)c2=O)c(F)cc1Cl` (configuration not stated) returned a melting point of 102 to 104 °C.
The same measure for `CCOc1ccc(C2=NN(C3CCN(C(C)=O)CC3)C(=O)[C@@H]3CC=CC[C@H]23)cc1OCC`: 148 to 150 °C.
With `CCCCOC(=O)c1cc2cccc(O)c2[nH]1`, the melting point was in the range of 150 to 151 °C.
As to `O=C(Nc1ncco1)c1cnc2c(C(F)(F)F)cccc2c1O`, the melting point came to 304 °C.
Take `O=C1c2ccccc2S(=O)(=O)N1/C=C/CSc1nnnn1-c1ccccc1`: the melting point is 191 to 193 °C.
The same measure for `CCCN1CC(C)=C(C)C2=C1N1CN(OC)C=C1C=N2`: 91 to 92.5 °C; for `COC(=O)CCc1nc(C=O)ccc1OC`: 95 to 97 °C; for `Cc1c(C)c2c(c(C)c1NC(=O)CC(C)(C)C)C(N1CCCC1)C(C)(C)O2` (configuration not stated): 197 to 198 °C.
The same measure for `CCCCCS(=O)(=O)NC(=O)/C=C/c1ccc(OC(C)C)cc1Oc1ncc(C(F)(F)F)cc1Cl`: 142 to 144 °C.
The same measure for `Cc1nc2c3c(c(C(=O)N4CCOCC4)cc2n1C)CCC(c1ccccc1)O3` (configuration not stated): 291 to 293 °C; for `CC(=O)NC[C@H]1CN(c2cc(F)c(N3CCC(O)(COCC(F)(F)F)CC3)c(F)c2)C(=O)O1`: 182 to 184 °C.
`Clc1ccc(CNc2nc(-c3cccc(Cl)n3)nc3ccccc23)cc1` showed a melting point of 187 to 190 °C.
Regarding `COC(=O)c1cc(NC(=O)C(N)c2ccc3c(c2)C(C)(C)CCC3(C)C)cn1C` (configuration not stated), the melting point lay in the range of 122 to 124 °C.
`CSC(C(=O)N1CCOCC1)c1cccc(C(=O)c2ccccc2)c1N` (configuration not stated) registered a melting point of 119 to 121 °C.
On to `CCCc1nn(-c2ccc(C(F)(F)F)cn2)cc1CCCCOc1ccc(CCC(=O)O)c(C)c1`, for which the melting point is 105 to 107 °C.
The same measure for `COC(=O)c1ccc2cc(OC)c(OC)cc2c1-c1ccnc(Cl)c1`: 142 to 145 °C.
As to `Cn1c(=O)cc(-c2nc(-c3ccccc3)cs2)c2cc(C(O)c3ccc(Cl)cc3)ccc21` (configuration not stated), the melting point amounted to 192 °C.
On to `O=C(O)c1cccc(-c2cccc3oc(Cc4ccc(F)c(F)c4)cc23)c1`, for which the melting point was 194 to 195 °C.
`CC(=O)n1[nH]c(=O)n(-c2ccc(Cl)cc2)c1=O` came in with a melting point of 201 to 203 °C.
The same measure for `Fc1ccc2sc(-c3ccc(CBr)cc3)nc2c1`: 138 to 141 °C; for `COC(=O)N[C@H](C(=O)N[C@@H](Cc1ccccc1)[C@@H](O)CN(Cc1ccc(-c2cncs2)cc1)NC(=O)OC(C)(C)C)C(C)C`: 114 to 115 °C; for `CON=C(OCC(=O)OC)C(Cl)=Cc1cc(-n2ncc(C(F)(F)F)c(C)c2=O)c(F)cc1Cl`: 75 to 76 °C.
The same measure for `N#Cc1c(F)ccc(F)c1N`: 90 to 92 °C.
In turn, `NC(=O)C(=Cc1c[nH]c2ncccc12)c1ccccc1` showed a melting point of 222 to 224 °C.
The same measure for `COC(=O)NNS(=O)(=O)c1ccccc1`: 149 to 154 °C.
As for `O=C(c1cc(=O)c2cc(O)ccc2[nH]1)N1CCC(Cc2ccc(Cl)cc2)CC1`, the melting point is 194 °C.
`CC1(C)CC(=C(c2ccc(O)cc2)c2ccc(/C=C/C(=O)O)cc2)CC(C)(C)C1` came in with a melting point of 219 to 220 °C.
For the compound `c1ccc(CCNc2cc(-n3cccn3)nc(-c3ccco3)n2)nc1`, the melting point is 110 to 111 °C.
`CC(C)=CCN1CCOC(CN2c3ccccc3C=Cc3ccccc32)C1` (configuration not stated): the melting point lay within 99 to 100 °C.
As for `CCN1CC(=O)Nc2cc(Nc3ncc(Cl)c(Nc4ccccc4S(=O)(=O)N(C)C)n3)c(OC)cc2C1`, the melting point was found to be 175 °C.
As to `O=C(CCO)Nc1cccc(S)c1`, the melting point was in the range of 103 to 104 °C.
The same measure for `COc1ccc(NC(=O)c2ccc(F)c(F)c2)cc1NS(=O)(=O)c1ccc([N+](=O)[O-])cc1`: 231 to 249 °C.
The same measure for `COc1ccc(Cl)cc1C(=O)NCCc1ccc(-c2ccccn2)c(S(N)(=O)=O)c1`: 202 to 203 °C.
Consider `CN(C)S(=O)(=O)Nc1cc(C(=O)c2ccccc2)ccc1N`, for which the melting point is 147 to 149 °C.
The same measure for `O=C(O)c1ccc(Cc2ccccc2)[nH]1`: 130 to 134 °C; for `CCN1C(=O)C(C)(C)C(=O)N(C)c2cc(CCN(CCn3cc(C)c4occc4c3=O)Cc3cc(C)nn3C)ccc21`: 171 to 173 °C; for `CC(C)(C)c1cc(C=O)c(O)c(S(C)(=O)=O)c1`: 134 to 136 °C.
On to `Clc1ccc(C2=C[C@H](CN3CC=C(c4ccccc4)CC3)CCC2)cc1`, for which the melting point lay in the range of 138 to 141 °C.
In turn, `CCCCc1oc2ccc(C(N)=O)cc2c1C(=O)c1ccc(OCCCN(CCCC)CCCC)cc1` had a melting point of 90 to 92 °C.
For the compound `CCCCCC(COc1ccc(C(=O)O)cc1)c1ccc2c(c1)SCCC2(C)C` (configuration not stated), the melting point fell in the range of 123 to 124 °C.
The same measure for `Cc1c(C)c2c(c(C)c1O)C(=O)CC(COc1ccc(CC3SC(=O)NC3=O)cc1)O2` (configuration not stated): 249 to 252 °C; for `COc1ncccc1C(=O)NC1CN(C)CCn2c1nc(-c1ccncn1)cc2=O` (racemic): 228 to 230 °C; for `Nc1cccc(-c2ccc(CCN3CCN(C(=O)c4ccco4)CC3)cc2)n1`: 152 to 154 °C.
